PubChem BioAssay AID248 (DTP/NCI, 2004)
Toxic doses and inconclusive results are not listed. Cut-off read from the data, not from the text of the source: active = T/C of 150% or more; inactive = T/C below 125%.

System: L1210 leukemia ip in BDF1 mice, survival T/C
Assay: NCI In Vivo Anticancer Drug Screen. Data for tumor model L1210 Leukemia (intraperitoneal) in B6D2F1 (BDF1) mice
Conditions: endpoint: mean survival time, higher = longer survival
Method in brief: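 Ratio derived from survival: compound-dosed mice over vehicle-dosed mice, all bearing a transplantable tumor.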

[1] = dose: 100.0 mg/kg/injection, schedule: Q04DX003 (ip), vehicle: saline with Tween-80
[2] = dose: 200.0 mg/kg/injection, schedule: Q04DX003 (ip), vehicle: saline with Tween-80
[3] = dose: 400.0 mg/kg/injection, schedule: Q04DX003 (ip), vehicle: saline with Tween-80
[4] = dose: 100.0 mg/kg/injection, schedule: Q01DX009 (ip), vehicle: Klucel (hydroxypropylcellulose) (HPC)
[5] = dose: 100.0 mg/kg/injection, schedule: Q04DX003 (ip), vehicle: Klucel (hydroxypropylcellulose) (HPC)
[6] = dose: 200.0 mg/kg/injection, schedule: Q01DX009 (ip), vehicle: Klucel (hydroxypropylcellulose) (HPC)
[7] = dose: 200.0 mg/kg/injection, schedule: Q04DX003 (ip), vehicle: Klucel (hydroxypropylcellulose) (HPC)
[8] = dose: 400.0 mg/kg/injection, schedule: Q01DX009 (ip), vehicle: Klucel (hydroxypropylcellulose) (HPC)
[9] = dose: 400.0 mg/kg/injection, schedule: Q04DX003 (ip), vehicle: Klucel (hydroxypropylcellulose) (HPC)
[10] = dose: 100.0 mg/kg/injection, schedule: Q01DX009 (ip), vehicle: saline with Tween-80
[11] = dose: 200.0 mg/kg/injection, schedule: Q01DX009 (ip), vehicle: saline with Tween-80

Measured: T/C

CNC1C(O)C(OC2C(N)CC(N)C(OC3OC(CN)=CCC3N)C2O)OCC1(C)O (centres undefined)
inactive: dose: 63.5 mg/kg/injection, schedule: Q04DX002 (ip), vehicle: saline with Tween-80 90 % of control | dose: 125.0 mg/kg/injection, schedule: Q04DX002 (ip), vehicle: saline with Tween-80 97 % of control | dose: 250.0 mg/kg/injection, schedule: Q04DX002 (ip), vehicle: saline with Tween-80 87 % of control

CC(=O)OCCc1cccc(C)c1
inactive: dose: 100.0 mg/kg/injection, schedule: Q04DX002 (ip), vehicle: Klucel (hydroxypropylcellulose) (HPC) 104 % of control | dose: 200.0 mg/kg/injection, schedule: Q04DX002 (ip), vehicle: Klucel (hydroxypropylcellulose) (HPC) 115 % of control | dose: 400.0 mg/kg/injection, schedule: Q04DX002 (ip), vehicle: Klucel (hydroxypropylcellulose) (HPC) 108 % of control

O=C(CCl)NC(O)C(Cl)(Cl)Cl (centres undefined)
inactive: dose: 1.8 mg/kg/injection, schedule: Q01DX009 (ip), vehicle: saline with Tween-80 100 % of control | dose: 3.7 mg/kg/injection, schedule: Q01DX009 (ip), vehicle: saline with Tween-80 98 % of control | dose: 7.5 mg/kg/injection, schedule: Q01DX009 (ip), vehicle: saline with Tween-80 102 % of control | dose: 75.0 mg/kg/injection, schedule: Q04DX003 (ip), vehicle: saline 101 % of control | dose: 150.0 mg/kg/injection, schedule: Q04DX003 (ip), vehicle: saline 101 % of control | dose: 300.0 mg/kg/injection, schedule: Q04DX003 (ip), vehicle: saline 87 % of control

c1ccc(-c2oc3ccc4ccccc4c3c2-c2ccc(OCCN3CCCC3)cc2)cc1
inactive: dose: 10.0 mg/kg/injection, schedule: Q01DX009 (ip), vehicle: Klucel (hydroxypropylcellulose) (HPC) 102 % of control | dose: 20.0 mg/kg/injection, schedule: Q01DX009 (ip), vehicle: Klucel (hydroxypropylcellulose) (HPC) 101 % of control | dose: 40.0 mg/kg/injection, schedule: Q01DX009 (ip), vehicle: Klucel (hydroxypropylcellulose) (HPC) 101 % of control | dose: 80.0 mg/kg/injection, schedule: Q01DX009 (ip), vehicle: Klucel (hydroxypropylcellulose) (HPC) 101 % of control

CCOC(=O)C(O)c1ccccc1 (centres undefined)
inactive: [1] 98 % of control | [2] 98 % of control | [3] 98 % of control

CCN(CC)CCCOP(=O)(N(CC)CC)N(CCCl)CCCl (centres undefined)
inactive: dose: 200.0 mg/kg/injection, schedule: Q01DX001 (ip), vehicle: saline with Tween-80 101 % of control

ClCCOCCOc1ccccc1
inactive: [1] 96 % of control | [2] 100 % of control | [3] 101 % of control

CCc1ccc(Nc2c([N+](=O)[O-])cc(C)cc2[N+](=O)[O-])cc1
inactive: [4] 97 % of control | [5] 103 % of control | [6] 105 % of control | [7] 108 % of control | [8] 113 % of control | [9] 102 % of control

NC(N)=NC(N)=Nc1ccc(Cl)cc1
inactive: [5] 103 % of control

O=C(N/N=C/c1ccc2c(c1)CCC2)c1cccs1
inactive: [5] 97 % of control | [7] 103 % of control | [9] 107 % of control

O=C1NC(Cc2ccccc2)C(=O)O1 (centres undefined)
inactive: dose: 100.0 mg/kg/injection, schedule: Q04DX003 (ip), vehicle: saline 100 % of control | dose: 200.0 mg/kg/injection, schedule: Q04DX003 (ip), vehicle: saline 91 % of control | dose: 400.0 mg/kg/injection, schedule: Q04DX003 (ip), vehicle: saline 93 % of control

O=S(=O)(O)c1ccc(-c2nc(-c3ccccc3)c(-c3ccccc3)[nH]2)cc1
inactive: dose: 100.0 mg/kg/injection, schedule: Q01DX009 (ip), vehicle: saline 102 % of control | dose: 200.0 mg/kg/injection, schedule: Q01DX009 (ip), vehicle: saline 102 % of control | dose: 400.0 mg/kg/injection, schedule: Q01DX009 (ip), vehicle: saline 101 % of control

CC(=O)Nc1ccc(NC(=O)C2C3C=CC(C3)C2C(=O)O)cc1 (centres undefined)
inactive: dose: 50.0 mg/kg/injection, schedule: Q01DX009 (ip), vehicle: saline with Tween-80 101 % of control | [10] 107 % of control | [11] 93 % of control

COC(=O)COc1c(C)cc(Cl)cc1Cl
inactive: dose: 100.0 mg/kg/injection, schedule: Q04DX002 (ip), vehicle: saline with Tween-80 96 % of control | dose: 200.0 mg/kg/injection, schedule: Q04DX002 (ip), vehicle: saline with Tween-80 86 % of control | dose: 400.0 mg/kg/injection, schedule: Q04DX002 (ip), vehicle: saline with Tween-80 98 % of control

CCc1ccc(NC(=O)c2cc(OC)c(OC)c(OC)c2)cc1
inactive: [4] 100 % of control | [6] 97 % of control | [8] 101 % of control

CCCCCCCCCNC(=O)Nc1cccc(Cl)c1C
inactive: [10] 86 % of control | [1] 90 % of control | [11] 87 % of control | [2] 90 % of control | [3] 90 % of control

Cc1ccc(NC(=O)Oc2ccc(Cl)cc2Cl)cc1NC(=O)Oc1ccc(Cl)cc1Cl
inactive: [4] 89 % of control | [6] 94 % of control | [8] 89 % of control

COc1cccc(N2C(=O)C=CC2=O)c1
inactive: dose: 1.56 mg/kg/injection, schedule: Q01DX009 (ip), vehicle: Klucel (hydroxypropylcellulose) (HPC) 97 % of control | dose: 3.12 mg/kg/injection, schedule: Q01DX009 (ip), vehicle: Klucel (hydroxypropylcellulose) (HPC) 97 % of control

CC(C)CC(N)C(=O)NC1(C(=O)O)C2CC3CC(C2)CC1C3 (centres undefined)
inactive: dose: 17.5 mg/kg/injection, schedule: Q01DX009 (ip), vehicle: Klucel (hydroxypropylcellulose) (HPC) 101 % of control | dose: 35.0 mg/kg/injection, schedule: Q01DX009 (ip), vehicle: Klucel (hydroxypropylcellulose) (HPC) 96 % of control | dose: 70.0 mg/kg/injection, schedule: Q01DX009 (ip), vehicle: Klucel (hydroxypropylcellulose) (HPC) 97 % of control | dose: 75.0 mg/kg/injection, schedule: Q01DX009 (ip), vehicle: Klucel (hydroxypropylcellulose) (HPC) 103 % of control | dose: 150.0 mg/kg/injection, schedule: Q01DX009 (ip), vehicle: Klucel (hydroxypropylcellulose) (HPC) 97 % of control | dose: 300.0 mg/kg/injection, schedule: Q01DX009 (ip), vehicle: Klucel (hydroxypropylcellulose) (HPC) 92 % of control

CC(C)(C)C(N)=O
inactive: [4] 92 % of control | dose: 100.0 mg/kg/injection, schedule: Q04DX003 (ip), vehicle: other 94 % of control | [6] 90 % of control | dose: 200.0 mg/kg/injection, schedule: Q04DX003 (ip), vehicle: other 98 % of control | [8] 95 % of control | dose: 400.0 mg/kg/injection, schedule: Q04DX003 (ip), vehicle: other 98 % of control

CC(C)(c1ccccc1)[N+](C)(C)C
inactive: dose: 4.0 mg/kg/injection, schedule: Q01DX Z (ip), vehicle: saline 93 % of control | dose: 6.25 mg/kg/injection, schedule: Q01DX009 (ip), vehicle: saline 97 % of control | dose: 6.25 mg/kg/injection, schedule: Q04DX003 (ip), vehicle: saline 104 % of control | dose: 8.0 mg/kg/injection, schedule: Q01DX Z (ip), vehicle: saline 96 % of control | dose: 12.5 mg/kg/injection, schedule: Q01DX009 (ip), vehicle: saline 91 % of control | dose: 12.5 mg/kg/injection, schedule: Q04DX003 (ip), vehicle: saline 103 % of control | dose: 16.0 mg/kg/injection, schedule: Q01DX Z (ip), vehicle: saline 92 % of control | dose: 25.0 mg/kg/injection, schedule: Q01DX009 (ip), vehicle: saline 92 % of control | dose: 25.0 mg/kg/injection, schedule: Q04DX003 (ip), vehicle: saline 91 % of control
